Source: US20030170704A1, “Substance capable of controlling the inclusion of exon 10 of the tau gene, and its therapeutic use against tauopathies” (Max-Planck-Gesellschaft Zur Foerd Der Wissen. E.V., priority 1999, published 2003)

Legend:
[1] = system: tau exon 10 inclusion (SV10 minigene); assay: RT-PCR of tau exon 10 minigene SV10 1:1 co-transfected with splicing regulator cDNA plasmids in COS cells; assay type: cell-based, human; settings: 1:1 co-transfection, FIG. 4
Procedure: Plasmid DNA was purified by cesium chloride banding (Sambrook et al., 1989). The plasmids obtained in Examples 1 and 2 were introduced into cells by the lipofection method (LT1, Panvera).
Plates (100 mm) that had reached ˜30% confluence were transfected with 10 μg of construct DNA or 5 μg of each plasmid for co-transfections. The medium was changed 16 h after transfection, without glycerol shock.
Total RNA was isolated 48 h post-transfection by the TRIzol method (Life Technologies). […]
The RT-PCR experiments were done twice with the polyA^+ RNAs and with total RNAs from three independent transfections, to ensure reproducibility. […] In FIGS. 1-4, the percent of the 10^+ isoform was calculated by scanning the bands from three independent transfections and measuring the areas under the curves (by the IPLab Gel program from Scanalytics).
RT-PCR was performed in a manner as described in Example 4 (using primer pair: INS1/INS3), except that-mammalian cells were analyzed which had been 1:1 co-transfected with tau exon 10 containing minigene constructs (denoted SV 10) and with plasmids containing cDNA of various plicing regulators. […]

[2] = system: clk2 phosphorylation / exon 10 inclusion of the tau gene; assay: Changing clk2 phosphorylation levels by kinase/phosphatase inhibitors; assay type: cell-based

“ASF/SF2: serine/arginine-rich (SR) protein splicing regulator, expressed from cDNA under the CMV promoter” was tested, and the “effect on tau exon 10 inclusion (10+/10- isoform ratio by RT-PCR)” value [1] was “inhibited”.
In the case of OC[C@H]1O[C@@H](n2cnc3cc(Cl)c(Cl)cc32)[C@H](O)[C@@H]1O [5,6-dichloro-1-b-D-ribofuranosylbenzimidazole], the “controlled change of exon 10 inclusion of the tau gene via clk2 phosphorylation levels” value [2] is reported as “changing the clk2 phosphorylation levels”.
In the case of C=C1[C@@H](O)[C@@H]2O[C@]3(CC[C@H](/C=C/[C@@H](C)[C@@H]4CC(C)=C[C@@]5(O[C@H](C[C@@](C)(O)C(=O)O)CC[C@H]5O)O4)O3)CC[C@H]2O[C@@H]1[C@@H](O)C[C@H](C)[C@H]1O[C@@]2(CCCCO2)CC[C@H]1C [okadaic acid], the “controlled change of exon 10 inclusion of the tau gene via clk2 phosphorylation levels” value [2] is reported as “changing the clk2 phosphorylation levels”.
